Values quoted from earlier work as cited in patent publication US20090117053A1, “LOCAL DELIVERY OF 5-AMINOLEVULINIC-ACID BASED COMPOUNDS TO TISSUES AND ORGANS FOR DIAGNOSTIC AND THERAPEUTIC PURPOSES” (Boston Scientific Scimed, Inc., priority 2007, published 2009).

Columns and labels:
[1] = comparison between ALA-based compounds
[2] = system: protoporphyrin IX (PPIX); conditions: compared with ALA hydrochloride and various other ALA ester hydrochlorides
[3] = compared with ALA hydrochloride and various other ALA ester hydrochlorides

Molecule	hydrophilicity (relative ranking) [1]	PPIX levels [2]	phototoxicity [3]
CCOC(=O)CCC(=O)CN.Cl [ALA ethyl ester hydrochloride]	more hydrophilic than ALA n-propyl ester hydrochloride		
Cl.NCC(=O)CCC(=O)O [ALA hydrochloride, 5-aminolevulinic acid hydrochloride]	more hydrophilic than ALA methyl ester hydrochloride		
COC(=O)CCC(=O)CN.Cl [ALA methyl ester hydrochloride]	more hydrophilic than ALA ethyl ester hydrochloride		
Cl.NCC(=O)CCC(=O)OCCC(F)(F)C(F)(F)C(F)(F)C(F)(F)F [ALA nonafluorohexylester hydrochloride]		appreciably increased PPIX levels	improved phototoxicity
CCCCCCSC(=O)CCC(=O)CN.Cl [ALA thiohexylester hydrochloride, ALA thiohexyl ester hydrochloride]		appreciably increased PPIX levels	improved phototoxicity
ALA dibenzyldiester dihydrochloride		appreciably increased PPIX levels	improved phototoxicity
